Experimental findings from ChEMBL document CHEMBL1140067, “Synthesis, in vitro, and in vivo biological evaluation and molecular docking simulations of chiral alcohol and ether derivatives of the 1,5-diarylpyrrole scaffold as novel anti-inflammatory and analgesic agents” (Bioorg Med Chem, 2008) are described below.

Where only a bound is given, the exact number is not on record here.

Test [1] has as its target T1, Prostaglandin G/H synthase 1 (Mus musculus, UniProt P22437).
T1 sequence (P22437 whole entry): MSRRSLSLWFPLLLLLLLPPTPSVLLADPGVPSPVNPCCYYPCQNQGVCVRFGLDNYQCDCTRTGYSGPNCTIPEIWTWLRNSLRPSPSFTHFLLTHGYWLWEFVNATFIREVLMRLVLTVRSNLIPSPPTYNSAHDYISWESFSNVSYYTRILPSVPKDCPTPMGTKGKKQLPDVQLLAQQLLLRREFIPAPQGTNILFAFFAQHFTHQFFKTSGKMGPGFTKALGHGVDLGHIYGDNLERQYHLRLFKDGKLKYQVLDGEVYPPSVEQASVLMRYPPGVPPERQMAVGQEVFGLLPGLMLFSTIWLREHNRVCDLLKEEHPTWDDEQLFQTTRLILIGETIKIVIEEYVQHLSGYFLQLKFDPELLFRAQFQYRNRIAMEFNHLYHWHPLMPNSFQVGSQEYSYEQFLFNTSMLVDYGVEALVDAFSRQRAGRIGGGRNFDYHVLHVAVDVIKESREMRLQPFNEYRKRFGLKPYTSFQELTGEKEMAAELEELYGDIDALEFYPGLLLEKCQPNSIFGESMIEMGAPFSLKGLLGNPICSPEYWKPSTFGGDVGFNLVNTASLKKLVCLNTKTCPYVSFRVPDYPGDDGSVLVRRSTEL
In words: Inhibition of COX1 in arachidonic acid-stimulated mouse J774 cells assessed as inhibition of PGE2 production after 15 mins by radioimmunoassay. The format is cell-based.

The target in test [2] is T2, Prostaglandin G/H synthase 2 (Mus musculus, UniProt Q05769).
T2 sequence (Q05769 whole entry): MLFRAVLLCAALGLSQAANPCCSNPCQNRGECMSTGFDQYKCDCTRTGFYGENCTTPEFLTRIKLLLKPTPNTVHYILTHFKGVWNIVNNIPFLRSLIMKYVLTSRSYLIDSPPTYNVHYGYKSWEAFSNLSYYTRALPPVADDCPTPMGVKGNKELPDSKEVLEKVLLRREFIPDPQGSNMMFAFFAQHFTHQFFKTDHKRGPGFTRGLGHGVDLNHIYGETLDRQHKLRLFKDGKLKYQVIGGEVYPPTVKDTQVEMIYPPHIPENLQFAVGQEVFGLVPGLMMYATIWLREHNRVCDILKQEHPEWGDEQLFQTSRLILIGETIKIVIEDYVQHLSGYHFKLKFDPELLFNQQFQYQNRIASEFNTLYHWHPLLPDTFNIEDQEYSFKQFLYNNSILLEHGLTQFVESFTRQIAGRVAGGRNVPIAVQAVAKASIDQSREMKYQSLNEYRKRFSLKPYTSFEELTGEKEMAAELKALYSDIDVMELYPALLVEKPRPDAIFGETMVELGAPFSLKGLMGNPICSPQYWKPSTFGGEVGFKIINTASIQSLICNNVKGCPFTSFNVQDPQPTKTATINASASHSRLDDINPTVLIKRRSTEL
Description: Inhibition of COX2 in LPS-stimulated mouse J774 cells assessed as inhibition of PGE2 production after 15 mins by radioimmunoassay

Another test concerns J774. In words: Selectivity ratio of IC50 for COX1 in arachidonic acid-stimulated mouse J774 cells to IC50 for COX2 in LPS-stimulated mouse J774 cells. The format is cell-based.
Test [3] has as its target T3, Prostaglandin G/H synthase 2 (Homo sapiens, UniProt P35354).
T3 sequence (P35354 whole entry): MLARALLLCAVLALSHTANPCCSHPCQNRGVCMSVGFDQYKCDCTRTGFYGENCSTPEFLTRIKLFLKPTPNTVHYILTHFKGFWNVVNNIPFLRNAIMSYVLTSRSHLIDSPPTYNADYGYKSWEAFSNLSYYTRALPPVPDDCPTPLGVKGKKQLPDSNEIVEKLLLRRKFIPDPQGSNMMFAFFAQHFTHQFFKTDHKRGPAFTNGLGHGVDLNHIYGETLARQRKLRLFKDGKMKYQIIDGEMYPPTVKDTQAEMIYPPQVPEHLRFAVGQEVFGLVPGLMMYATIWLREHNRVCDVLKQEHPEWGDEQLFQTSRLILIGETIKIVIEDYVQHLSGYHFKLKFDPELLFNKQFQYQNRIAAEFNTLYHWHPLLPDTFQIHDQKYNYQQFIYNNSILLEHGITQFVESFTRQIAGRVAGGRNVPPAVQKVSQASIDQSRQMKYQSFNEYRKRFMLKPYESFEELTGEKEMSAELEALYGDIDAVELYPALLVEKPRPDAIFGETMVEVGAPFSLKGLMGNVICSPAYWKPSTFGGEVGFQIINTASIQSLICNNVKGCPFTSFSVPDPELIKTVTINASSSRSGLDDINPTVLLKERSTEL
Briefly: Inhibition of COX2 in human whole blood assessed as inhibition of TXB2 production by radioimmunoassay. The test is classed as tissue-based.

Test [4] has as its system Rattus norvegicus. In words: Analgesic activity against carrageenan-induced hyperalgesia in rat assessed as paw pressure at 20 mg/kg, po after 60 mins. The test is classed as functional.
Test [5] has as its system Rattus norvegicus. Briefly: Analgesic activity against carrageenan-induced hyperalgesia in rat assessed as paw pressure at 20 mg/kg, po after 120 mins. The test is classed as functional.
Test [6] deals with Mus musculus. In words: Analgesic activity against acetic acid-induced writhing in Swiss albino mouse assessed as number of writhes at 20 mg/kg, po administered 30 mins before test. The test is classed as functional. A general note: An intraperitoneal irritant provokes the stretching counted in writhing tests.
The target of test [7] is Prostaglandin G/H synthase 1 (Homo sapiens, UniProt P23219). Briefly: Inhibition of COX1 in human whole blood assessed as inhibition of LPS-stimulated PGE2 production by radioimmunoassay. The format is tissue-based.
Test [8] deals with Rattus norvegicus. Briefly: Analgesic activity against carrageenan-induced hyperalgesia in rat assessed as paw pressure at 20 mg/kg, po after 30 mins. The format is functional.
Test [9] has as its system Mus musculus. Briefly: Analgesic activity against acetic acid-induced writhing in po dosed Swiss albino mouse assessed as number of writhes administered 30 mins before test. The format is functional, organism-based.
Test [10] concerns Mus musculus. In words: Analgesic activity against acetic acid-induced writhing in Swiss albino mouse assessed as number of writhes at 10 mg/kg, po administered 30 mins before test. The format is functional.
The subject of test [11] is Rattus norvegicus. In words: Antiinflammatory activity against carrageenan-induced paw edema in rat assessed as paw volume at 20 mg/kg, po administered 4 hrs post carrageenan challenge measured after 60 mins. The format is functional. Background: In the carrageenan paw model, swelling and tenderness develop within hours.

The IC50 is the concentration that inhibits the measured activity by half.

Prostaglandin G/H synthase 1 (Homo sapiens, UniProt P23219), sequence (P23219 whole entry): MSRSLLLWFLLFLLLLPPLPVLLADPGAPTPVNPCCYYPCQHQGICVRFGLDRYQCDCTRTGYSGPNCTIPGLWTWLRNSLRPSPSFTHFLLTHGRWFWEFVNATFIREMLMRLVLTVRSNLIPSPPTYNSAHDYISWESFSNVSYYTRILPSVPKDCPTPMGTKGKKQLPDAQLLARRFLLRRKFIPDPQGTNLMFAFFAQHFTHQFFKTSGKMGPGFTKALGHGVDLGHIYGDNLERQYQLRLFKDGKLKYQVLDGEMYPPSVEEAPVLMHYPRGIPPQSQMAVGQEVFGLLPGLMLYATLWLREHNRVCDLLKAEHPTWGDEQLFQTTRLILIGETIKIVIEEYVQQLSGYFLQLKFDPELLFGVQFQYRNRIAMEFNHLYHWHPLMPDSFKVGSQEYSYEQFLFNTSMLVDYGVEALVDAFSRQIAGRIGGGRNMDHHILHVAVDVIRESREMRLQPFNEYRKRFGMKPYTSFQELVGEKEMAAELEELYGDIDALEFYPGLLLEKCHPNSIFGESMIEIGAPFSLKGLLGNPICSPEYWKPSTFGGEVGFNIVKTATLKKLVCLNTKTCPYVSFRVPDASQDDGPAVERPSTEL

Consider `CCOC(=O)[C@@H](OCC)c1cc(-c2ccc(S(C)(=O)=O)cc2)n(-c2cccc(F)c2)c1C`, for which the concentration for half-maximal inhibition (IC50) in test [1] was more than 100 µM; in test [2], 0.25 µM. Also, in the test on J774, the Ratio IC50 was more than 400.

On to `CCOC(=O)[C@H](O)c1cc(-c2ccc(S(C)(=O)=O)cc2)n(-c2ccccc2)c1C`, for which the IC50 in [1] is more than 100 µM.

In the case of `CCOC(=O)[C@@H](OCC)c1cc(-c2ccc(S(C)(=O)=O)cc2)n(-c2ccccc2)c1C`, the values for the IC50 in [1] and in test [2] were more than 100 µM and 0.1 µM, respectively. Also, the Ratio IC50 with J774 was more than 1000.

Turning to `CCOC(=O)[C@H](OCC)c1cc(-c2ccc(S(C)(=O)=O)cc2)n(-c2ccccc2)c1C`, the IC50 in [1] was more than 100 µM; in test [2], 0.14 µM. In addition, the Ratio IC50 with J774 is more than 700.

As for `CCOC(=O)[C@@H](O)c1cc(-c2ccc(S(C)(=O)=O)cc2)n(-c2ccccc2)c1C`, the IC50 in test [1] was more than 100 µM.

For the molecule `CCOC(=O)[C@@H](OCC)c1cc(-c2ccc(S(C)(=O)=O)cc2)n(-c2ccc(OC)cc2)c1C`, the concentration for half-maximal inhibition (IC50) in test [1] is more than 100 µM; in test [2] it was 0.14 µM. For the same molecule, the Ratio IC50 in the test with J774 was more than 700.

For the molecule `CCc1cccc2c3c([nH]c12)C(CC)(CC(=O)O)OCC3` (configuration not stated) [ETODOLAC], in test [3], the IC50 is 2 µM.

For the molecule `CCOC(=O)[C@H](OCC)c1cc(-c2ccc(S(C)(=O)=O)cc2)n(-c2ccc(OC)cc2)c1C`, the values for the IC50 in test [1] and in test [2] were more than 100 µM and 0.09 µM, respectively. In addition, the Ratio IC50 in the test on J774 is more than 1100.

As for `CCOC(=O)C(O)c1cc(-c2ccc(S(C)(=O)=O)cc2)n(-c2ccccc2)c1C` (racemic), the 50% inhibitory concentration (IC50) in test [1] is more than 100 µM.

`CCOC(=O)C(OCC)c1cc(-c2ccc(S(C)(=O)=O)cc2)n(-c2ccccc2)c1C` (racemic): the IC50 in test [1] is more than 100 µM; in [2], 0.18 µM. In the test with J774, the Ratio IC50 was more than 800.

Consider `CCOC(=O)[C@H](OCC)c1cc(-c2ccc(S(C)(=O)=O)cc2)n(-c2cccc(F)c2)c1C`, for which the 50% inhibitory concentration (IC50) in test [1] is more than 100 µM; in test [2], 0.81 µM. Besides, the Ratio IC50 in the test on J774 was more than 100.

As to `CCOC(=O)C(O)c1cc(-c2ccc(S(C)(=O)=O)cc2)n(-c2cccc(F)c2)c1C` (racemic), the Activity was 45.2 g with Rattus norvegicus [4]; 47.5 g with Rattus norvegicus [5]; 16.1 in the test with Mus musculus [6]; 54.8 g with Rattus norvegicus [8]; “Dose-dependent effect” in the test with Mus musculus [9]; 26.3 in the test on Mus musculus [10]. The Activity in the test on Rattus norvegicus [11] amounted to 1.4 mL. For the same molecule, the concentration for half-maximal inhibition (IC50) in test [1] was more than 100 µM; in test [2], 0.12 µM; in [3], 3.8 µM; in test [7] it was 21.3 µM. Further, in the test on J774, the Ratio IC50 was more than 800.

Regarding `CCOC(=O)[C@H](O)c1cc(-c2ccc(S(C)(=O)=O)cc2)n(-c2ccc(OC)cc2)c1C`, the IC50 in test [1] is more than 100 µM.

For `CCOC(=O)[C@H](O)c1cc(-c2ccc(S(C)(=O)=O)cc2)n(-c2cccc(F)c2)c1C`, the IC50 in test [1] is more than 100 µM; in test [2] it was 0.075 µM. Also, the Ratio IC50 in the test on J774 is more than 1300.

Turning to `CCOC(=O)[C@@H](O)c1cc(-c2ccc(S(C)(=O)=O)cc2)n(-c2cccc(F)c2)c1C`, the IC50 is more than 100 µM in test [1] and 1.1 µM in test [2]. Also, the Ratio IC50 with J774 is more than 90.

Regarding `CCOC(=O)C(OCC)c1cc(-c2ccc(S(C)(=O)=O)cc2)n(-c2ccc(OC)cc2)c1C` (racemic), the concentration for half-maximal inhibition (IC50) in test [1] was more than 100 µM; in [2] it was 0.13 µM. Besides, the Ratio IC50 in the test with J774 was more than 800.

Take `CCOC(=O)C(O)c1cc(-c2ccc(S(C)(=O)=O)cc2)n(-c2ccc(OC)cc2)c1C` (racemic): the IC50 in [1] is more than 100 µM.

For the molecule `CCOC(=O)[C@@H](O)c1cc(-c2ccc(S(C)(=O)=O)cc2)n(-c2ccc(OC)cc2)c1C`, the half-maximal inhibitory concentration (IC50) in test [1] was more than 100 µM.

Consider `CCOC(=O)C(OCC)c1cc(-c2ccc(S(C)(=O)=O)cc2)n(-c2cccc(F)c2)c1C` (racemic), for which the IC50 was more than 100 µM in test [1] and 0.1 µM in [2]. Also, in the test on J774, the Ratio IC50 was more than 1000.
